Test results as given in publication PMC8157459, “Exploring the anti-HIV-1 reverse transcriptase, anti-inflammatory, anti-cancer activities and cytotoxicity of two fermented commercial herbal concoctions sold in Limpopo Province of South Africa” (BMC Complementary Medicine and Therapies, 2021).

Biological target: T1, human sPLA2 (Type V) (Homo sapiens, UniProt P39877)
T1 construct: gene PLA2G5
T1 sequence (P39877 21-138): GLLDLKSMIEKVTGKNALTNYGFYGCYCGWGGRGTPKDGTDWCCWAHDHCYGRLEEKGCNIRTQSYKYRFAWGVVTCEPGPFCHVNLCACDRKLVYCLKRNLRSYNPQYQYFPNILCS
Assay: diheptanoyl thio-PC hydrolysis, DTNB colorimetric
Assay type: biochemical
Conditions: read-out: sPLA2 (IC50 μg/mL) (converted)
Excerpt: diheptanoyl thio-PC hydrolysis, DTNB colorimetric on human sPLA2 (Type V)

## CCCCCCCCCCCCCCCCSC[C@H](COP(=O)([O-])OCC[N+](C)(C)C)NC(=O)CCCCCCCCCCCCCCC [Thioetheramide-PC]
  IC50: 2.07 µM
